One compound from US20110212466A1, “Thiol-Modified Surface Immobilization Article And Method” (priority 2009, published 2011) can be followed below.

The test system of the test is carbonic anhydrase (CAII). The test is described as follows: furosemide binding on immobilized CAII, Epic biosensor (Example 3). The conditions noted are these: cystine in combination with glycine. As to the method:
Step 3. Binding of protein inhibitor: The plate was equilibrated at ambient (25° C.) temperature for about 30 min before rinsing with PBS (on Biomek, following standard rinsing protocol). The plate was centrifuged and soaked in 0.1% DMSO in PBS for about 4 h at ambient temperature.
The plate was then read in the Epic® instrument for 20 min.

Take `NS(=O)(=O)c1cc(C(=O)O)c(NCc2ccco2)cc1Cl` [furosemide]: the binding result is recorded as “over 10 pm”.
